Among the data in patent US20110294778A1, “HEPATITIS C INHIBITOR COMPOUNDS” (priority 2009, published 2011) are EC50 values, retold here.

Experiment [1] deals with HCV genotype 1a (strain H77) subgenomic replicon with NS3 resistance mutation R155K in Huh-7 cells. The experiment is described as follows: HCV replicon RNA replication assay (NS3 protease variants), genotype 1a R155K. It counts as cell-based. As to conditions: Hepatitis C virus, Huh-7, 72 h, read-out: R155K 1a EC50 (nM).
In experiment [2] the test system is HCV genotype 1b (Con-1) subgenomic replicon with NS3 resistance mutation D168V in Huh-7 cells. The experiment is described as follows: HCV replicon RNA replication assay (NS3 protease variants), genotype 1b D168V. It is filed as cell-based. Particulars: Hepatitis C virus, Huh-7, 72 h, read-out: D168V 1b EC50 (nM).

Each structure is given as a SMILES string.

`COc1ccc2c(O[C@@H]3C[C@H]4C(=O)N[C@]5(C(=O)NS(=O)(=O)C6(C)CC6)C[C@H]5/C=C\CCCCC[C@H](NC(=O)c5cc(C)n(C)n5)C(=O)N4C3)cc(OC(C)C)nc2c1C` [Compound 1026, (2R,6S,12Z,13aS,14aR,16aS)-6-{[(1,5-dimethyl-1H-pyrazol-3-yl)carbonyl]amino}-2-{[7-methoxy-8-methyl-2-(propan-2-yloxy)quinolin-4-yl]oxy}-N-[(1-methylcyclopropyl)sulfonyl]-5,16-dioxo-1,2,3,6,7,8,9,10,11,13a,14,15,16,16a-tetradecahydrocyclopropa[e]pyrrolo[1,2-a][1,4]diazacyclopentadecine-14a(5H)-carboxamide]: the EC50 in experiment [1] came out at 3.3 nM; in experiment [2], 0.32 nM. As to `COc1ccc2c(O[C@@H]3C[C@H]4C(=O)N[C@]5(C(=O)NS(=O)(=O)C6(C)CC6)C[C@H]5/C=C\CCCCC[C@H](NC(=O)c5ccn(C)n5)C(=O)N4C3)cc(OC3CCC3)nc2c1C` [Compound 1022, (2R,6S,12Z,13aS,14aR,16aS)-2-{[2-(cyclobutyloxy)-7-methoxy-8-methylquinolin-4-yl]oxy}-N-[(1-methylcyclopropyl)sulfonyl]-6-{[(1-methyl-1H-pyrazol-3-yl)carbonyl]amino}-5,16-dioxo-1,2,3,6,7,8,9,10,11,13a,14,15,16,16a-tetradecahydrocyclopropa[e]pyrrolo[1,2-a][1,4]diazacyclopentadecine-14a(5H)-carboxamide], the concentration giving a half-maximal response (EC50) in experiment [1] amounted to 6.8 nM; in experiment [2] it was 0.24 nM.

Regarding `CCOc1cc(O[C@@H]2C[C@H]3C(=O)N[C@]4(C(=O)NS(=O)(=O)C5CC5)C[C@H]4/C=C\CCCCC[C@H](NC(=O)c4ccc(COC)s4)C(=O)N3C2)c2ccc(OC)c(C)c2n1` [Compound 1014, (2R,6S,12Z,13aS,14aR,16aS)-N-(cyclopropylsulfonyl)-2-[(2-ethoxy-7-methoxy-8-methylquinolin-4-yl)oxy]-6-({[5-(methoxymethyl)thiophen-2-yl]carbonyl}amino)-5,16-dioxo-1,2,3,6,7,8,9,10,11,13a,14,15,16,16a-tetradecahydrocyclopropa[e]pyrrolo[1,2-a][1,4]diazacyclopentadecine-14a(5H)-carboxamide], the EC50 in experiment [1] is 8.3 nM; in experiment [2], 0.31 nM.

Consider `COc1ccc2c(O[C@@H]3C[C@H]4C(=O)N[C@]5(C(=O)NS(=O)(=O)C6CC6)C[C@H]5/C=C\CCCCC[C@H](NC(=O)c5ccn(C(F)F)n5)C(=O)N4C3)cc(OC(C)C)nc2c1C` [Compound 1027, (2R,6S,12Z,13aS,14aR,16aS)-N-(cyclopropylsulfonyl)-6-({[1-(difluoromethyl)-1H-pyrazol-3-yl]carbonyl}amino)-2-{[7-methoxy-8-methyl-2-(propan-2-yloxy)quinolin-4-yl]oxy}-5,16-dioxo-1,2,3,6,7,8,9,10,11,13a,14,15,16,16a-tetradecahydrocyclopropa[e]pyrrolo[1,2-a][1,4]diazacyclopentadecine-14a(5H)-carboxamide], for which the results for the EC50 in experiment [1] and in experiment [2] were 8.4 nM and 0.35 nM, respectively. The matching figures for `COc1ccc2c(O[C@@H]3C[C@H]4C(=O)N[C@]5(C(=O)NS(=O)(=O)C6CC6)C[C@H]5/C=C\CCCCC[C@H](NC(=O)c5ccc(C)s5)C(=O)N4C3)cc(OCC(F)(F)F)nc2c1C` [Compound 1035, (2R,6S,12Z,13aS,14aR,16aS)-N-(cyclopropylsulfonyl)-2-{[7-methoxy-8-methyl-2-(2,2,2-trifluoroethoxy)quinolin-4-yl)oxy}-6-{[(5-methylthiophen-2-yl)carbonyl]amino}-5,16-dioxo-1,2,3,6,7,8,9,10,11,13a,14,15,16,16a-tetradecahydrocyclopropa[e]pyrrolo[1,2-a][1,4]diazacyclopentadecine-14a(5H)-carboxamide]: 8.2 nM and 0.77 nM. The matching figures for `CCOc1cc(O[C@@H]2C[C@H]3C(=O)N[C@]4(C(=O)NS(=O)(=O)C5(C)CC5)C[C@H]4/C=C\CCCCC[C@H](NC(=O)N4CCC4)C(=O)N3C2)c2ccc(OC)c(C)c2n1` [Compound 2015, (2R,6S,12Z,13aS,14aR,16aS)-6-[(azetidin-1-ylcarbonyl)amino]-2-[(2-ethoxy-7-methoxy-8-methylquinolin-4-yl)oxy]-N-[(1-methylcyclopropyl)sulfonyl]-5,16-dioxo-1,2,3,6,7,8,9,10,11,13a,14,15,16,16a-tetradecahydrocyclopropa[e]pyrrolo[1,2-a][1,4]diazacyclopentadecine-14a(5H)-carboxamide]: 5.4 nM and 0.67 nM. The matching figures for `COc1ccc2c(O[C@@H]3C[C@H]4C(=O)N[C@]5(C(=O)NS(=O)(=O)C6(C)CC6)C[C@H]5/C=C\CCCCC[C@H](NC(=O)N5CC(C)(C)C5)C(=O)N4C3)cc(OC(C)C)nc2c1C` [Compound 2021, (2R,6S,12Z,13aS,14aR,16aS)-6-{[(3,3-dimethylazetidin-1-yl)carbonyl]amino}-2-{[7-methoxy-8-methyl-2-(propan-2-yloxy)quinolin-4-yl]oxy}-N-[(1-methylcyclopropyl)sulfonyl]-5,16-dioxo-1,2,3,6,7,8,9,10,11,13a,14,15,16,16a-tetradecahydrocyclopropa[e]pyrrolo[1,2-a][1,4]diazacyclopentadecine-14a(5H)-carboxamide]: 3 nM and 1.6 nM.

Take `CCOc1cc(O[C@@H]2C[C@H]3C(=O)N[C@]4(C(=O)NS(=O)(=O)C5(C)CC5)C[C@H]4/C=C\CCCCC[C@H](NC(=O)c4ccn(C)n4)C(=O)N3C2)c2ccc(OC)c(C)c2n1` [Compound 1030, (2R,6S,12Z,13aS,14aR,16aS)-2-[(2-ethoxy-7-methoxy-8-methylquinolin-4-yl)oxy]-N-[(1-methylcyclopropyl)sulfonyl]-6-{[(1-methyl-1H-pyrazol-3-yl)carbonyl]amino}-5,16-dioxo-1,2,3,6,7,8,9,10,11,13a,14,15,16,16a-tetradecahydrocyclopropa[e]pyrrolo[1,2-a][1,4]diazacyclopentadecine-14a(5H)-carboxamide]: the EC50 in experiment [1] was found to be 6.3 nM; in experiment [2], 0.38 nM.

Consider `COc1ccc2c(O[C@@H]3C[C@H]4C(=O)N[C@]5(C(=O)NS(=O)(=O)C6(C)CC6)C[C@H]5/C=C\CCCCC[C@H](NC(=O)c5cc[nH]n5)C(=O)N4C3)cc(OC(C)C)nc2c1C` [Compound 1009, (2R,6S,12Z,13aS,14aR,16aS)-2-{[7-methoxy-8-methyl-2-(propan-2-yloxy)quinolin-4-yl]oxy}-N-[(1-methylcyclopropyl)sulfonyl]-5,16-dioxo-6-[(1H-pyrazol-3-ylcarbonyl)amino]-1,2,3,6,7,8,9,10,11,13a,14,15,16,16a-tetradecahydrocyclopropa[e]pyrrolo[1,2-a][1,4]diazacyclopentadecine-14a(5H)-carboxamide], for which the figures for the EC50 in experiment [1] and in experiment [2] were 1.9 nM and 0.49 nM, respectively. In the case of `COc1ccc2c(O[C@@H]3C[C@H]4C(=O)N[C@]5(C(=O)NS(=O)(=O)C6(C)CC6)C[C@H]5/C=C\CCCCC[C@H](NC(=O)c5ccc(C)s5)C(=O)N4C3)cc(OC(C)C)nc2c1C` [Compound 1004, (2R,6S,12Z,13aS,14aR,16aS)-2-{[7-methoxy-8-methyl-2-(propan-2-yloxy)quinolin-4-yl]oxy}-N-[(1-methylcyclopropyl)sulfonyl]-6-{[(5-methylthiophen-2-yl)carbonyl]amino}-5,16-dioxo-1,2,3,6,7,8,9,10,11,13a,14,15,16,16a-tetradecahydrocyclopropa[e]pyrrolo[1,2-a][1,4]diazacyclopentadecine-14a(5H)-carboxamide], the concentration for a half-maximal effect (EC50) came out at 2.8 nM in experiment [1] and 0.22 nM in experiment [2]. Consider `COc1ccc2c(O[C@@H]3C[C@H]4C(=O)N[C@]5(C(=O)NS(=O)(=O)C6(C)CC6)C[C@H]5/C=C\CCCCC[C@H](NC(=O)N(C)C)C(=O)N4C3)cc(OC(C)C)nc2c1Br` [Compound 2016, (2R,6S,12Z,13aS,14aR,16aS)-2-{[8-bromo-7-methoxy-2-(propan-2-yloxy)quinolin-4-yl]oxy}-6-[(dimethylcarbamoyl)amino]-N-[(1-methylcyclopropyl)sulfonyl]-5,16-dioxo-1,2,3,6,7,8,9,10,11,13a,14,15,16,16a-tetradecahydrocyclopropa[e]pyrrolo[1,2-a][1,4]diazacyclopentadecine-14a(5H)-carboxamide], for which the EC50 in experiment [1] is 2 nM; in experiment [2], 1 nM. As to `COc1ccc2c(O[C@@H]3C[C@H]4C(=O)N[C@]5(C(=O)NS(=O)(=O)C6CC6)C[C@H]5/C=C\CCCCC[C@H](NC(=O)c5cc[nH]n5)C(=O)N4C3)cc(OC(C)C)nc2c1C` [Compound 1016, (2R,6S,12Z,13aS,14aR,16aS)-N-(cyclopropylsulfonyl)-2-{[7-methoxy-8-methyl-2-(propan-2-yloxy)quinolin-4-yl]oxy}-5,16-dioxo-6-[(1H-pyrazol-3-ylcarbonyl)amino]-1,2,3,6,7,8,9,10,11,13a,14,15,16,16a-tetradecahydrocyclopropa[e]pyrrolo[1,2-a][1,4]diazacyclopentadecine-14a(5H)-carboxamide], the EC50 in experiment [2] came to 0.92 nM. In the case of `COc1ccc2c(O[C@@H]3C[C@H]4C(=O)N[C@]5(C(=O)NS(=O)(=O)C6CC6)C[C@H]5/C=C\CCCCC[C@H](NC(=O)c5ccc(C)s5)C(=O)N4C3)cc(OC(C)C)nc2c1C` [Compound 1007, (2R,6S,12Z,13aS,14aR,16aS)-N-(cyclopropylsulfonyl)-2-{[7-methoxy-8-methyl-2-(propan-2-yloxy)quinolin-4-yl]oxy}-6-{[(5-methylthiophen-2-yl)carbonyl]amino}-5,16-dioxo-1,2,3,6,7,8,9,10,11,13a,14,15,16,16a-tetradecahydrocyclopropa[e]pyrrolo[1,2-a][1,4]diazacyclopentadecine-14a(5H)-carboxamide], the EC50 in experiment [2] worked out at 0.25 nM.
